In PMC6904270, “A High-Throughput Assay for Monitoring Ubiquitination in Real Time” (Frontiers in Chemistry, 2019):

Target: T1, E1 ubiquitin-activating enzyme (UBE1) (Homo sapiens, UniProt P22314)
T1 construct: gene UBA1
T1 sequence (P22314 2-1058): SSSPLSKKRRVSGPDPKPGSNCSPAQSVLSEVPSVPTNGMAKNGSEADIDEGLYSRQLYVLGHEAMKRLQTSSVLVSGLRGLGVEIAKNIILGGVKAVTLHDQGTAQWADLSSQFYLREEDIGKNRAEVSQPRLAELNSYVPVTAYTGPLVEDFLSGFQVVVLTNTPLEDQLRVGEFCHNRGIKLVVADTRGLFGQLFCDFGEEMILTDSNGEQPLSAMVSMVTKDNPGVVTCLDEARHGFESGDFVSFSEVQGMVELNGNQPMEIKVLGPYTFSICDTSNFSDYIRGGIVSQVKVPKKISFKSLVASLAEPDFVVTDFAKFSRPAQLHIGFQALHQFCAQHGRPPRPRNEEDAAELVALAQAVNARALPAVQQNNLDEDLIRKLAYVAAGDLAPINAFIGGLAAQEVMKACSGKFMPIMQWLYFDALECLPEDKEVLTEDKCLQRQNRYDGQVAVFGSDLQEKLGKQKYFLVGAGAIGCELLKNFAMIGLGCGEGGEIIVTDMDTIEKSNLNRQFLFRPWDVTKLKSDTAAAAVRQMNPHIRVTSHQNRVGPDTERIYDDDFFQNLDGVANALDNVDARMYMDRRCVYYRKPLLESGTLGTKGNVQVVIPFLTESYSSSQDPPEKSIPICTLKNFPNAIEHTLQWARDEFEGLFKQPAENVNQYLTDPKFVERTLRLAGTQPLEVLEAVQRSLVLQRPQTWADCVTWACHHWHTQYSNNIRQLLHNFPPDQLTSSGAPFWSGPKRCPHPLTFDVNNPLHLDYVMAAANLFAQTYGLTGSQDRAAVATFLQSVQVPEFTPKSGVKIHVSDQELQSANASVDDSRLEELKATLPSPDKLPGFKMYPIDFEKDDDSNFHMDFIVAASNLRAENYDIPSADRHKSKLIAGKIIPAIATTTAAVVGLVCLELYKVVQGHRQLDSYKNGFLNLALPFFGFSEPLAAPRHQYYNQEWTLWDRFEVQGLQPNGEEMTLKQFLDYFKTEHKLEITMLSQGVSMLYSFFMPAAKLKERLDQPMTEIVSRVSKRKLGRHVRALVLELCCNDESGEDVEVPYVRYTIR
Test: fluorescence polarization of E1~TAMRA-Ub complex formation with purified E1 (UbiReal), endpoint dose-response
Format: biochemical

Question: For `CCOC(=O)c1ccc(N2NC(=O)C(=Cc3ccc([N+](=O)[O-])o3)C2=O)cc1` [PYR-41], which IC50 is on record?
Answer: 9.15 µM
